Key:
[1] = system: N1MA1a (DNA, aptamer) GACGACACATAATTGTTGATCCACTGTTTATTAGGTGTCGTC; assay: ITC; settings: 500 mM Na+, 20 mM Mg2+; 50 mM Tris, pH 7.6, 25 °C; abstract prints 0.75 ± 0.04
[2] = system: N1MA2a (DNA, aptamer) GACGACAAGGTTGCTGGTCTGGTACAGAGATAGTTCGTCGTC; assay: ITC; settings: 500 mM Na+, 20 mM Mg2+; 50 mM Tris, pH 7.6, 25 °C
[3] = system: AdeApt (classical adenosine aptamer) (DNA, aptamer) ACCTGGGGGAGTATTGCGGAGGAAGGT; assay: ThT fluorescence displacement; settings: 500 mM Na+, 20 mM Mg2+; Kd could not be fitted; 50 mM Tris, pH 7.6; ThT tracer

Kd [1]: 0.75 ± 0.07 µM
Kd [2]: 7.3 ± 7.5 µM
binding [3]: weak
Compound: Cn1cnc2c(ncn2[C@@H]2O[C@H](CO)[C@@H](O)[C@H]2O)c1=N
